Article PMC12040169 (PLOS Biology, 2025)

Test: in vitro
Conditions: human, hela cells, % viability

SMILES | viability at 28.5 h, 10 µM [%]
C=CCOc1c(Br)cc(CNc2ccc(C(=O)O)cc2)cc1OC [CBK267202] | 111
CN1CCN(S(=O)(=O)c2ccc3c(c2)oc(=O)c2cc(S(=O)(=O)N4CCN(C)CC4)ccc23)CC1 [CBK267206] | 85
Cc1ccc(-n2ncc(C(=O)N3CCc4ccccc4C3)c2NC(=O)c2ccco2)cc1C [CBK267207] | 100
O=C(O)c1cccc(-c2ccc(/C=C\c3nc(O)c([N+](=O)[O-])c(=O)[nH]3)o2)c1 [CBK267209] | 96.9
COC(=O)Cc1ccc(NC(=S)Nc2ccc(N3CCOCC3)cc2)cc1 [CBK267211] | 87.4
CCNC(=S)NC(=Nc1nc(C)cc(C)n1)NCc1cccnc1 [CBK267212] | 97.2
O=C(NCCO)NC(=S)c1ccccc1 [CBK267213] | 95.2
O=C(Cn1c(-c2ccccn2)nc2ccccc21)NCCN1CCOCC1 [CBK267214] | 95
c1ccc(CSc2nnc(COc3cccc4ccccc34)n2Cc2ccccc2)cc1 [CBK267215] | 116
Fc1ccccc1Nc1nc(-c2ccncc2)cs1 [CBK267216] | 103
Cc1cc(C)nc(NS(=O)(=O)c2ccc(Nc3ncnc(N)c3[N+](=O)[O-])cc2)n1 [CBK267217] | 96.6
CCN1CCN(C(=O)CN(C)S(=O)(=O)c2ccc(Cl)cc2)CC1 [CBK267218] | 100
N#Cc1ccsc1NC(=O)CSc1nnc[nH]1 [CBK267221] | 87.7
COC(=O)c1c(NC(=O)CSc2nc[nH]n2)sc2c1CCCC2 [CBK267222] | 81.6
O=C(O)COc1ccc(Br)cc1/C=C\c1nc(O)c([N+](=O)[O-])c(=O)[nH]1 [CBK267223] | 88.5
CCOC(=O)c1c(NC(=O)CSc2nc[nH]n2)sc2c1CCC2 [CBK267225] | 94.5
COc1ccc(N2C(=O)CC(NNC(=O)CNC(C)=O)C2=O)cc1 (stereo not shown) [CBK267228] | 87.7
COc1ccc(-c2nc(NC(=O)CSc3n[nH]c(N)n3)ns2)cc1 [CBK267236] | 81.8
O=C(NCCO)c1nc(NCCO)c2ccccc2n1 [CBK267239] | 110
N#CC1=C(N)N2C(=C(C#N)C13CCN(Cc1ccccc1)CC3)Nc1ccccc12 [CBK267241] | 108
Cc1ccc(-c2csc3ncnc(SCc4csc(C)n4)c23)cc1 [CBK267244] | 91.7
FC(F)(F)c1cccc(NC(=S)Nc2ccc(Cc3ccncc3)cc2)c1 [CBK267251] | 89.1

SMILES | viability at 28.5 h, 10 µM [%]
Cc1cc(C)nc(N/C(=N\C(=S)Nc2cccc(Cl)c2C)NCc2cccnc2)n1 [CBK267254] | 93.5
COc1cc(OC)nc(NC(=O)CN2CCN(c3ccc(F)cc3)CC2)n1 [CBK267259] | 96.5
Cc1cc(/C=C(\C#N)c2nc3ccccc3[nH]2)c(C)n1-c1ccc(C(=O)O)cc1 [CBK267262] | 94.7
c1cnc2cc(Oc3ccc4nccnc4c3)ccc2n1 [CBK267266] | 99.4
Nc1ncnc(NCCCN2CCOCC2)c1[N+](=O)[O-] [CBK267267] | 91.8
N#Cc1ccccc1CSc1nnc(-c2ccco2)n1-c1ccccc1 [CBK267270] | 91.8
Cc1cccnc1Nc1nc(-c2ccccn2)cs1 [CBK267272] | 91.5
O=C(CSc1nc[nH]n1)Nc1nsc(-c2ccc(Cl)cc2)n1 [CBK267273] | 110
O=C(O)C1(NS(=O)(=O)c2ccc(F)c(Cl)c2)CCCCC1 [CBK267276] | 98.2
NC(=O)CSc1nnc(COc2ccc(Br)cc2)n1-c1ccccc1 [CBK267277] | 101
COc1ccc(S(=O)(=O)N(C)CC(=O)Nc2ccc(C(N)=O)cc2)cc1C [CBK267278] | 88
COc1ccc(NC(=O)CC2NC(=O)NC2=O)cc1 (stereo not shown) [CBK267279] | 86.5
O=C(CSc1nc2sc3c(c2c(=O)n1CCc1ccccc1)CCCC3)Nc1ccccc1 [CBK267281] | 112
Cc1nnc2sc(-c3cccc(NC(=S)NC(=O)c4cc5ccccc5o4)c3)nn12 [CBK267282] | 87.4
Nc1ncnc(NCCc2c[nH]c3ccccc23)c1[N+](=O)[O-] [CBK267283] | 29.6
CN(C)CCCNc1nc(-c2cccc(Cl)c2)nc2ccccc12 [CBK267284C] | 81.5
CCCCC12CN3CC(C)(CN(C1)C31C(=O)N(C)c3ccc(C)cc31)C2=O (stereo not shown) [CBK267286] | 96.1
CCN(CC)CCNc1ncnc(N)c1[N+](=O)[O-] [CBK267287] | 82.8
Cc1ccc(-c2noc(CN3CCN(Cc4ccccc4)CC3)n2)cc1 [CBK267288] | 91.3
COc1ccc(-c2nc(NC(=O)CSc3nnc(C)s3)ns2)cc1 [CBK267290] | 96.9
O=C(NCc1ccccn1)c1ccc(CNS(=O)(=O)c2cccc(C(F)(F)F)c2)cc1 [CBK267291] | 87.7
C=CCn1c(S)nnc1COc1cccc2ccccc12 [CBK267292] | 89.4

SMILES | viability at 28.5 h, 10 µM [%]
Cc1ccc(Cl)c(NC(=O)NCCN2CCN(c3ccccc3[N+](=O)[O-])CC2)c1 [CBK267293] | 94.5
Nc1ncnc(NCCC(c2ccccc2)c2ccccc2)c1[N+](=O)[O-] [CBK267294] | 90.5
Cc1ccc(NC(=O)CSCc2nc3ccccc3[nH]2)cc1 [CBK267299] | 108
Cc1cc(C)c2c(n1)OC(N1CCOCC1)(C(F)(F)F)CC2=O (stereo not shown) [CBK267301] | 79.2
O=C(NCc1ccccc1)c1cnsn1 [CBK267302] | 90.8
COc1cc(OC)c(NC(=O)CSc2ccccn2)cc1Cl [CBK267303] | 92.5
Nc1nonc1C(=O)NCCNCc1cccs1 [CBK267305] | 95.2
CC(C)Nc1ccc(S(=O)(=O)N(Cc2ccccc2)Cc2ccccc2)cn1 [CBK267307] | 84.6
c1ccc(COC(c2ccccc2)c2nc3ccccc3n2Cc2ccccc2)cc1 (stereo not shown) [CBK267311] | 98.2
Nc1ncnc(NCCCn2ccnc2)c1[N+](=O)[O-] [CBK267312] | 93.5
O=C(CSc1ncn(-c2ccccc2)n1)Nc1ccc(F)c(Cl)c1 [CBK267313] | 94.4
CCC(Oc1nc2ccccc2nc1-c1ccccc1NC(C)=O)C(=O)c1ccccc1 (stereo not shown) [CBK267315] | 94.4
N#C/C(=C/c1cn(CCC(N)=O)c2ccccc12)c1ccc2c(c1)OCO2 [CBK267319] | 90.2
CN(C)S(=O)(=O)c1ccc(NC(=O)c2ccc(-c3ccccc3)cc2)cc1 [CBK267322] | 104
Nc1nc(SCC(=O)N2CCC(c3noc4ccc(F)cc34)CC2)n[nH]1 [CBK267326] | 91.4
Cc1ccc(C(=O)NCCN2CCOCC2)cc1S(=O)(=O)N1CCCCC1 [CBK267329] | 86.2
CCOC(=O)c1ccc(NC(=O)C(C)Sc2nc3ccccc3[nH]2)cc1 (stereo not shown) [CBK267330] | 91.8
O=C(CC1NC(=O)NC1=O)Nc1ccccc1 (stereo not shown) [CBK267331] | 90.4
Cc1cccc(NC(=O)c2cc(NC(=O)C3CCCCC3C(=O)O)ccc2N2CCCCC2)c1 (stereo not shown) [CBK267332] | 97.3
COc1ccc(S(=O)(=O)N(C)CC(=O)Nc2ccc(S(N)(=O)=O)cc2)cc1C [CBK267333] | 93.7
